The results in this text go back to patent publication US20120015925A1, “NOVEL BENZOTHIAZEPINE AND BENZOTHIEPINE COMPOUNDS” (ASAHI KASEI PHARMA CORPORATION, priority 2004, published 2012).

Structures are written as SMILES.

This assay addresses T1, human IBAT (Homo sapiens, UniProt Q12908).
T1 sequence (Q12908 1-348): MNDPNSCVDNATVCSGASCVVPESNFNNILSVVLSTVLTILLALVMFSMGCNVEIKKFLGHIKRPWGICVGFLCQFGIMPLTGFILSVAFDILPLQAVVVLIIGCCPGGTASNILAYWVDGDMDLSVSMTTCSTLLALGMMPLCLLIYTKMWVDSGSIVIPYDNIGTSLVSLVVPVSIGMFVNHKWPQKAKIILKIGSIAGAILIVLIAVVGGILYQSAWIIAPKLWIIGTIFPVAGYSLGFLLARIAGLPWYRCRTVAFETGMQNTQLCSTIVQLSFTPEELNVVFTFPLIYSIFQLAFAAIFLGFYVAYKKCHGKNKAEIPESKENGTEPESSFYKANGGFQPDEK
As to the kind of experiment: In vitro assay using Cos 7 cells, transiently expressed human IBAT. Type of assay: cell-based. The following applies: [3H]-taurocholate 8 μM uptake, 37° C., 60 minutes. The procedure:
In the present Test Example, an in vitro assay of compounds using Cos 7 cells as to inhibitory activity on transiently expressed human IBAT or rat IBAT transporter was performed according to the method described in Am. J. Physiol., 274, G157-169.
That is, […] cells/well of Cos 7 cells were seeded in a 24-well plate, and after one day, the cells were transfected with 0.3 μg/well of cDNA of human IBAT or rat IBAT using FuGENE6 (supplied from Roche). After culturing for one day after the transfection, the cells were washed once with the assay buffer, i.e., Hanks buffer containing 25 mM glucose and 10 mM HEPES (pH 7.4). The assay buffer was then replaced with the assay buffer containing the test compound. [^3H]-Taurocholate at a final concentration of 8 μM was added thereto and incubated at 37° C. for 60 minutes so that [^3H]-taurocholate was taken into Cos 7 cells by the action of human IBAT or rat IBAT. The cells were washed twice with the assay buffer containing 1 mM taurocholate, and subsequently lysed with 0.2 M NaOH to stop the reaction. The cell lysate was added to 4 mL of liquid scintillation cocktail, which was then thoroughly vortexed. Then the radioactivity was measured using the liquid scintillation counter.

Turning to `CCCCC1(CCCC)CS(=O)(=O)c2ccc(N(C)C)cc2C(c2cccc(NC(=S)Nc3ccc(C[n+]4ccc(-c5ccccc5)cc4)cc3Cl)c2)N1` (centres unmarked) [EXAMPLE P380], the concentration for half-maximal inhibition (IC50) was 18 nM.

Regarding `CCCCC1(CCCC)CS(=O)(=O)c2ccc(N(C)C)cc2C(c2cccc(NC(=S)Nc3ccc(C[n+]4ccc(C(C)O)cc4)cc3)c2)N1` (racemic) [EXAMPLE 5411], 97 nM corresponded to half-maximal inhibition (IC50).

With `CCCCC1(CCCC)CS(=O)(=O)c2ccc(N(C)C)cc2C(c2cccc(NC(=S)Nc3ccc(C[n+]4cc(C)cc(C)c4)cc3)c2)N1` (centres unmarked) [EXAMPLE 3729], half-maximal inhibition (IC50) was put at 88 nM.

`CCCCC1(CCCC)CS(=O)(=O)c2ccc(N(C)C)cc2C(c2cccc(NC(=S)Nc3ccc(C[n+]4ccc(C(CC)CC)cc4)cc3)c2)N1` (centres unmarked) [EXAMPLE 3714] came in with an IC50 of 58 nM.

As to `CCCCC1(CCCC)CS(=O)(=O)c2ccc(N(C)C)cc2C(c2cccc(NC(=S)Nc3ccc(C[n+]4cc(C)cc(-c5ccccc5)c4)cc3)c2)N1` (racemic) [EXAMPLE 3730], the concentration for half-maximal inhibition (IC50) came out at 84 nM.

In turn, `CCCCC1(CCCC)CS(=O)(=O)c2ccc(N(C)C)cc2C(c2cccc(NC(=S)Nc3ccc(C[N+]4(Cc5ccccc5)CCCC(O)C4)cc3)c2)N1` (centres unmarked) [EXAMPLE 3604] yielded an IC50 of 45 nM.

Regarding `CCCCC1(CCCC)CS(=O)(=O)c2ccc(N(C)C)cc2C(c2cccc(NC(=S)Nc3ccc(C[n+]4ccc(C(C)(C)C)cc4)cc3Br)c2)N1` (centres unmarked) [EXAMPLE P370], the midpoint of inhibition, the IC50, lay at 30 nM.

In turn, `CCCCC1(CCCC)CS(=O)(=O)c2ccc(N(C)C)cc2C(c2cccc(NC(=S)Nc3c(C)cc(C[n+]4ccc(-c5ccccc5)cc4)cc3C)c2)N1` (centres unmarked) [EXAMPLE P386] yielded an IC50 of 60 nM.

For `CCCCCC[N+](C)(C)Cc1ccc(NC(=S)Nc2cccc(C3NC(CCCC)(CCCC)CS(=O)(=O)c4ccc(N(C)C)cc43)c2)cc1` (centres unmarked) [EXAMPLE 3410], inhibition was half-maximal at 68 nM (IC50).

The compound `CCCCC1(CCCC)CS(=O)(=O)c2ccc(N(C)C)cc2C(c2cccc(NC(=S)Nc3ccc(C[n+]4ccc(C5CCOCC5)cc4)cc3)c2)N1` (centres unmarked) [EXAMPLE 5419] came in with a half-inhibitory concentration (IC50) of 39 nM.

`CCCCC1(CCCC)CS(=O)(=O)c2ccc(N(C)C)cc2C(c2cccc(NC(=S)Nc3c(C)cc(C[n+]4ccc(C(C)(C)C)cc4)cc3C)c2)N1` (centres unmarked) [EXAMPLE P374] displayed an IC50 of 33 nM.

Take `CCCCC1(CCCC)CS(=O)(=O)c2ccc(N(C)C)cc2C(c2cccc(NC(=S)CCCCC[N+]34CCC(CC3)C(O)C4)c2)N1` (centres unmarked) [EXAMPLE 3854]: 28 nM corresponded to half-maximal inhibition (IC50).

On to `CCCCC1(CCCC)CS(=O)(=O)c2ccc(N(C)C)cc2C(c2cccc(NC(=S)Nc3ccc(C[N+](C)(C)Cc4ccccc4)c(Br)c3)c2)N1` (centres unmarked) [EXAMPLE P335], for which inhibition was half-maximal at 68 nM (IC50).

In turn, `CCCCC1(CCCC)CS(=O)(=O)c2ccc(N(C)C)cc2C(c2cccc(NC(=S)Nc3ccc(C[n+]4ccc(CCCO)cc4)cc3)c2)N1` (centres unmarked) [EXAMPLE 3733] displayed an IC50 of 57 nM.

The compound `CCCCC1(CCCC)CS(=O)(=O)c2ccc(N(C)C)cc2C(c2cccc(NC(=S)Nc3ccc(C[n+]4ccc(C(C)(C)C)cc4)c(C(F)(F)F)c3)c2)N1` (centres unmarked) [EXAMPLE P372] showed an IC50 of 35 nM.

As to `CCCCC1(CCCC)CS(=O)(=O)c2ccc(N(C)C)cc2C(c2cccc(NC(=S)Nc3c(C)cc(C[N+](C)(C)Cc4ccccc4)cc3C)c2)N1` (centres unmarked) [EXAMPLE P338], it took 47 nM to reach half-maximal inhibition (IC50).

In the case of `CCCCC1(CCCC)CS(=O)(=O)c2ccc(N(C)C)cc2C(c2cccc(NC(=S)Nc3ccc(C[n+]4ccc(-c5ccccc5)cc4)c(C(F)(F)F)c3)c2)N1` (centres unmarked) [EXAMPLE P384], half-maximal inhibition (IC50) required 32 nM.

The compound `CCCCC1(CCCC)CS(=O)(=O)c2ccc(N(C)C)cc2C(c2cccc(NC(=S)Nc3ccc(C[n+]4ccc(C(C)(C)C)cc4)c(Br)c3)c2)N1` (centres unmarked) [EXAMPLE P371] had a concentration for half-maximal inhibition (IC50) of 28 nM.

In turn, `CCCCC1(CCCC)CS(=O)(=O)c2ccc(N(C)C)cc2C(c2cccc(NC(=S)Nc3ccc(C[N+](C)(C)Cc4ccccc4)cc3C)c2)N1` (centres unmarked) [EXAMPLE P328] had an IC50 of 38 nM.

In turn, `CCCCC1(CCCC)CS(=O)(=O)c2ccc(N(C)C)cc2C(c2cccc(NC(=S)Nc3ccc(C[n+]4cc(O)cc(Cl)c4)cc3)c2)N1` (racemic) [EXAMPLE 5417] had a 50% inhibitory concentration (IC50) of 26 nM.

On to `CCCCC1(CCCC)CS(=O)(=O)c2ccc(N(C)C)cc2C(c2cccc(NC(=S)Nc3ccc(C[n+]4ccc(C(C)=O)cc4)cc3)c2)N1` (centres unmarked) [EXAMPLE 3736], for which the half-inhibitory concentration (IC50) was found to be 50 nM.

`C#CC[N+](C)(C)Cc1ccc(NC(=S)Nc2cccc(C3NC(CCCC)(CCCC)CS(=O)(=O)c4ccc(N(C)C)cc43)c2)cc1` (centres unmarked) [EXAMPLE 3433] registered an IC50 of 55 nM.

In the case of `CCCCC1(CCCC)CS(=O)(=O)c2ccc(N(C)C)cc2C(c2cccc(NC(=S)Nc3c(C)cc(C[N+]45CCC(CC4)CC5)cc3C)c2)N1` (centres unmarked) [EXAMPLE P326], the 50% inhibitory concentration (IC50) amounted to 100 nM.

Compound `CCCCC1(CCCC)CS(=O)(=O)c2ccc(N(C)C)cc2C(c2cccc(NC(=S)NCCC[N+]3(Cc4ccccc4)CCC(CCO)CC3)c2)N1` (centres unmarked) [EXAMPLE 593] registered a 50% inhibitory concentration (IC50) of 92 nM.

The compound `CCCCC1(CCCC)CS(=O)(=O)c2ccc(N(C)C)cc2C(c2cccc(NC(=S)Nc3ccc(C[N+]45CCC(CC4)CC5)c(Cl)c3)c2)N1` (centres unmarked) [EXAMPLE P321] registered an IC50 of 45 nM.

Compound `CCCCC1(CCCC)CS(=O)(=O)c2ccc(N(C)C)cc2C(c2cccc(NC(=S)Nc3ccc(C[N+]45CCC(CC4)CC5)c(Br)c3)c2)N1` (centres unmarked) [EXAMPLE P323] showed a concentration for half-maximal inhibition (IC50) of 32 nM.

As for `CCCCC1(CCCC)CS(=O)(=O)c2ccc(N(C)C)cc2C(c2cccc(NC(=S)Nc3ccc(C[N+](C)(C)Cc4ccccc4)c(F)c3)c2)N1` (centres unmarked) [EXAMPLE P331], the IC50 came to 35 nM.

`CCCCC1(CCCC)CS(=O)(=O)c2ccc(N(C)C)cc2C(c2cccc(NC(=S)Nc3ccc(C[N+]4(C)CCCCC4)cc3)c2)N1` (racemic) [EXAMPLE 3587] gave an IC50 of 70 nM.

In turn, `CCCCC1(CCCC)CS(=O)(=O)c2ccc(N(C)C)cc2C(c2cccc(NC(=S)Nc3ccc(C[n+]4ccc(NC=O)cc4)cc3)c2)N1` (racemic) [EXAMPLE 3754] had an IC50 of 92 nM.

In turn, `CCCCC1(CCCC)CS(=O)(=O)c2ccc(N(C)C)cc2C(c2cccc(NC(=S)Nc3ccc(C[n+]4cccc(Cc5ccccc5)c4)cc3)c2)N1` (centres unmarked) [EXAMPLE 3725] yielded a 50% inhibitory concentration (IC50) of 52 nM.

Compound `CCCCC1(CCCC)CS(=O)(=O)c2ccc(N(C)C)cc2C(c2cccc(NC(=S)Nc3ccc(C[n+]4ccc(-c5ccccc5)cc4)c(Br)c3)c2)N1` (centres unmarked) [EXAMPLE P383] came in with an IC50 of 26 nM.

`CCCCC1(CCCC)CS(=O)(=O)c2ccc(N(C)C)cc2C(c2cccc(NC(=S)Nc3ccc(C[N+](C)(CCC)CCC)cc3)c2)N1` (racemic) [EXAMPLE 3426] returned an IC50 of 58 nM.

In turn, `CCCCC1(CCCC)CS(=O)(=O)c2ccc(N(C)C)cc2C(c2cccc(NC(=S)Nc3ccc(C[n+]4ccc(C(C)(C)C)cc4)c([N+](=O)[O-])c3)c2)N1` (centres unmarked) [EXAMPLE P373] registered a 50% inhibitory concentration (IC50) of 97 nM.

Regarding `CCCCC1(CCCC)CS(=O)(=O)c2ccc(N(C)C)cc2C(c2cccc(NC(=S)Nc3ccc(C[n+]4cccc(-c5ccccc5)c4)cc3)c2)N1` (centres unmarked) [EXAMPLE 3724], the IC50 was 69 nM.

Compound `CCCCC(CCCC)c1cc[n+](Cc2ccc(NC(=S)Nc3cccc(C4NC(CCCC)(CCCC)CS(=O)(=O)c5ccc(N(C)C)cc54)c3)cc2)cc1` (centres unmarked) [EXAMPLE 3716] yielded a half-maximal inhibitory concentration (IC50) of 89 nM.

For the compound `CCCCC1(CCCC)CS(=O)(=O)c2ccc(N(C)C)cc2C(c2cccc(NC(=S)Nc3ccc(C[N+](C)(C)Cc4ccccc4)cc3Cl)c2)N1` (centres unmarked) [EXAMPLE P332], half-maximal inhibition (IC50) was put at 46 nM.

Turning to `CCCCC1(CCCC)CS(=O)(=O)c2ccc(N(C)C)cc2C(c2cccc(NC(=S)Nc3ccc(C[N+]45CCC(CC4)CC5)cc3Br)c2)N1` (centres unmarked) [EXAMPLE P322], it took 62 nM to reach half-maximal inhibition (IC50).

Consider `CCCCC1(CCCC)CS(=O)(=O)c2ccc(N(C)C)cc2C(c2cccc(NC(=S)Nc3ccc(C[n+]4ccc(CCC)cc4)cc3)c2)N1` (centres unmarked) [EXAMPLE 3711], for which the concentration for half-maximal inhibition (IC50) was found to be 63 nM.

In turn, `CCCCC1(CCCC)CS(=O)(=O)c2ccc(N(C)C)cc2C(c2cccc(NC(=S)Nc3ccc(C[n+]4ccc(-c5ccccc5)cc4)cc3)c2)N1` (centres unmarked) [EXAMPLE 3717] came in with a 50% inhibitory concentration (IC50) of 30 nM.

`CCCCC1(CCCC)CS(=O)(=O)c2ccc(N(C)C)cc2C(c2cccc(NC(=S)Nc3ccc(C[N+](C)(C)CCOC(=O)c4ccccc4)cc3)c2)N1` (centres unmarked) [EXAMPLE 3558] had an IC50 of 70 nM.

On to `CCCCC1(CCCC)CS(=O)(=O)c2ccc(N(C)C)cc2C(c2cccc(NC(=S)Nc3ccc(C[n+]4ccc(N(C)C)cc4)cc3)c2)N1` (racemic) [EXAMPLE 4210], for which the IC50 is 100 nM.

Take `CCCCC1(CCCC)CS(=O)(=O)c2ccc(N(C)C)cc2C(c2cccc(NC(=S)Nc3ccc(C[n+]4ccc(-c5ccccc5)cc4)cc3Br)c2)N1` (centres unmarked) [EXAMPLE P382]: half-maximal inhibition (IC50) was put at 28 nM.

The compound `CCCCC1(CCCC)CS(=O)(=O)c2ccc(N(C)C)cc2C(c2cccc(NC(=S)Nc3ccc(C[N+](C)(C)CC(C)O)cc3)c2)N1` (racemic) [EXAMPLE 3454] had an IC50 of 68 nM.

Take `CCCCC1(CCCC)CS(=O)(=O)c2ccc(N(C)C)cc2C(c2cccc(NC(=S)Nc3ccc(C[n+]4ccc(C(C)(C)C)cc4)cc3Cl)c2)N1` (centres unmarked) [EXAMPLE P368]: the IC50 came to 29 nM.

The term IC50 denotes the point on the concentration scale where inhibition reaches its midpoint. A lower IC50 goes with higher potency.
